Data from patent publication US11654169B2, “Methods for protecting skin and/or promoting wound healing” (SINPHAR PHARMACEUTICAL CO., LTD., priority 2016, dated 2023).

How the values were obtained:
Type in all cases: cell-based
[1] = test system: normal primary human skin fibroblastic cells; assay: Content of hyaluronic acid in cell medium of fibroblasts (Western blot and ELISA), relative to control; settings: 48 hours; for relative content of hyaluronic acid in the medium (extracellular content of hyaluronic acid): control group = 100%; for contents of hyaluronic acid as compared to the control group (in words): treated cells vs control group
Method: (§1) The normal primary human skin fibroblastic cells (purchased from ATCC) were cultivated in a Fibroblast Growth Medium. The cells thus provided were used in the following experiments. […]
(§2) Thereafter, the cell medium of each group was collected and concentrated. Then, the intracellular content of collagen, the content of collagen in cell medium (i.e., extracellular content of collagen) and the content of hyaluronic acid in cell medium were measured and analyzed by Western blot and enzyme-linked immunosorbent assay (ELISA).
(§3) The normal primary human skin fibroblastic cells provided by [Preparation Example C] were divided into 37 groups and were respectively cultivated with the following medium for 48 hours: • 1. Group 1: a Fibroblast Growth Medium • 2. Group 2-1 to 2-3: Fibroblast Growth Media containing the pachymic acid (PA) provided by [Preparation Example B] at a concentration of 0.01, 0.1 and 1 μM, respectively; • 3. Group 3-1 to 3-3: Fibroblast Growth Media containing the dehydropachymic acid (DPA) provided by [Preparation Example B] at a concentration of 0.01, 0.1 and 1 μM, respectively; • 4. Group 4-1 to 4-3: Fibroblast Growth Media containing the tumulosic acid (TA) provided by [Preparation Example B] at a concentration of 0.01, 0.1 and 1 μM, respectively; • 5. Group 5-1 to 5-3: Fibroblast Growth Media containing the dehydrotumulosic acid (DTA) provided by [Preparation Example B] at a concentration of 0.01, 0.1 and 1 μM, respectively; • 6. Group 6-1 to 6-3: Fibroblast Growth Media containing the polyporenic acid C (PAC) provided by [Preparation Example B] at a concentration of 0.01, 0.1 and 1 μM, respectively; • 7. Group 7-1 to 7-3: Fibroblast Growth Media containing the 3-epi-dehydrotumulosic acid (EDTA) provided by [Preparation Example B] at a concentration of 0.01, 0.1 and 1 μM, respectively; • 8. Group 8-1 to 8-3: Fibroblast Growth Media containing the dehydrotrametenolic acid (DTTA) provided by [Preparation Example B] at a concentration of 0.01, 0.1 and 1 μM, respectively; • 9. Group 9-1 to 9-3: Fibroblast Growth Media containing the trametenolic acid (TTA) provided by [Preparation Example B] at a concentration of 0.01, 0.1 and 1 μM, respectively; • 10. Group 10-1 to 10-3: Fibroblast Growth Media containing the poricoic acid A (PAA) provided by [Preparation Example B] at a concentration of 0.01, 0.1 and 1 μM, respectively; • 11. Group 11-1 to 11-3: Fibroblast Growth Media containing the dehydroeburicoic acid (DEA) provided by [Preparation Example B] at a concentration of 0.01, 0.1 and 1 μM, respectively; • 12. Group 12-1 to 12-3: Fibroblast Growth Media containing the poricoic acid B (PAB) provided by [Preparation Example B] at a concentration of 0.01, 0.1 and 1 μM, respectively; • 13. Group 13-1 to 13-3: Fibroblast Growth Media containing the eburicoic acid (EA) provided by [Preparation Example B] at a concentration of 0.01, 0.1 and 1 μM, respectively.
The content of hyaluronic acid in the medium of each group (i.e., extracellular content of hyaluronic acid) was provided.

[2] = test system: normal primary human skin fibroblastic cells; assay: Intracellular content of collagen in fibroblasts (Western blot and ELISA), relative to control; settings: 48 hours; for relative intracellular content of collagen: control group = 100%
Method: as §1, §3
Thereafter, the cell medium of each group was collected and concentrated. Then, the intracellular content of collagen was measured and analyzed by Western blot and enzyme-linked immunosorbent assay (ELISA).

[3] = test system: normal primary human skin fibroblastic cells; assay: Content of collagen in cell medium (extracellular collagen) of fibroblasts (Western blot and ELISA), relative to control; settings: 48 hours; for relative content of collagen in the medium (extracellular content of collagen): control group = 100%; for extracellular contents of collagen (collagen in cell medium) as compared to the control group (in words): treated cells vs control group
Method: The normal primary human skin fibroblastic cells (purchased from ATCC) were cultivated in a Fibroblast Growth Medium. The cells thus provided were used in the following experiments.
The normal primary human skin fibroblastic cells provided by [Preparation Example C] were divided into 4 groups and were respectively cultivated with the following medium for 48 hours: • 1. Group I: a Fibroblast Growth Medium; • 2.
as §2, §3
The content of collagen in the medium of each group (i.e., extracellular content of collagen) was provided.

SMILES	relative content of hyaluronic acid in the medium (extracellular content of hyaluronic acid) ([1]; 0.01 μM)	relative content of hyaluronic acid in the medium (extracellular content of hyaluronic acid) ([1]; 0.1 μM)	relative content of hyaluronic acid in the medium (extracellular content of hyaluronic acid) ([1]; 1 μM)	contents of hyaluronic acid as compared to the control group (in words) [1]	relative intracellular content of collagen ([2]; 0.01 μM)	relative intracellular content of collagen ([2]; 0.1 μM)	relative intracellular content of collagen ([2]; 1 μM)	intracellular contents of collagen as compared to the control group (in words) ([2]; treated cells vs control group)	relative content of collagen in the medium (extracellular content of collagen) ([3]; 0.01 μM)	relative content of collagen in the medium (extracellular content of collagen) ([3]; 0.1 μM)	relative content of collagen in the medium (extracellular content of collagen) ([3]; 1 μM)	extracellular contents of collagen (collagen in cell medium) as compared to the control group (in words) [3]
C=C(CC[C@@H](C(=O)O)[C@H]1[C@H](O)C[C@@]2(C)C3=CC[C@@H](C(=C)C)[C@](C)(CCC(=O)O)C3=CC[C@]12C)C(C)C [Poricoic acid A (PAA), poricoic acid A]	108%	106%	99%	significantly enhanced	78%	104%	115%	significantly enhanced	111%	111%	91%	significantly enhanced
C=C(C)[C@@H]1CC=C2C(=CC[C@]3(C)[C@@H]([C@@H](CCC=C(C)C)C(=O)O)[C@H](O)C[C@@]23C)[C@@]1(C)CCC(=O)O [Poricoic acid B (PAB), poricoic acid B]	109%	104%	84%	significantly enhanced	105%	108%	99%		122%	136%	153%	significantly enhanced
CC(C)=CCC[C@@H](C(=O)O)[C@H]1CC[C@@]2(C)C3=C(CC[C@]12C)[C@@]1(C)CC[C@H](O)C(C)(C)[C@@H]1CC3 [Trametenolic acid (TTA), trametenolic acid]	83%	108%	125%	significantly enhanced	95%	79%	79%		141%	149%	142%	significantly enhanced
C=C(CC[C@@H](C(=O)O)[C@H]1[C@H](O)C[C@@]2(C)C3=C(CC[C@]12C)[C@@]1(C)CC[C@H](O)C(C)(C)[C@@H]1CC3)C(C)C [Tumulosic acid (TA), tumulosic acid]	100%	123%	124%		148%	127%	147%		140%	136%	141%	
